Values of other authors as cited in US12357624B2, “Low dose pridopidine for Parkinson's Disease and other diseases associated with parkinsonism” (PRILENIA NEUROTHERAPEUTICS LTD., priority 2019, dated 2025).

System: B104 neuroblastoma cell line
Settings: NE100 1 μM co-incubated with pridopidine; cited from earlier work

CCCN(CCC)CCc1ccc(OC)c(OCCc2ccccc2)c1 [NE100, reference compound]
BDNF secretion: BDNF secretion was inhibited
